Results published in ChEMBL document CHEMBL5729318, “Pharmaceutical compounds for treatment of medical disorders” (2022).
pIC50: −log10 of the molar value.

Target: Complement factor D (Homo sapiens, UniProt P00746)
Assay: Human Factor D Assay: Human Factor D (purified from human serum, Complement Technology, Inc.) at 80 nM final concentration is incubated with test compound at various concentrations for 5 min at room temperature in 50 mM Tris, 1M NaCl, pH 7.5. A synthetic substrate Z-L-Lys-SBzl and DTNB (Ellman's reagent) are added to final concentrations of 100 μM each. Absorbance at 405 nm (A405) is recorded at 30 second intervals for 30 min using a microplate spectrophotometer. IC50 values are calculated by nonlinear regression of Complement Factor D reaction rates as a function of test compound concentration.

Complement factor D, sequence (P00746 whole entry): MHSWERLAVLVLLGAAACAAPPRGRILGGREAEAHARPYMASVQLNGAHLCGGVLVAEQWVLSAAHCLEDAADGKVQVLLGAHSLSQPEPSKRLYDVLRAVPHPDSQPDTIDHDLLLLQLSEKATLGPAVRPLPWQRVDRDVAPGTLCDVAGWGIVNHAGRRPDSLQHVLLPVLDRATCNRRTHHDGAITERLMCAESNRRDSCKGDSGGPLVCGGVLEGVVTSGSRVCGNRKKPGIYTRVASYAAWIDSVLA

Compound	pIC50
CC(=O)c1nn(CC(=O)N2[C@H](C(=O)Nc3nc(Br)ccc3C)C[C@@]3(C)C[C@@H]23)c2c(C)cccc12	> 6.00
CC(=O)c1nn(CC(=O)N2[C@H](C(=O)Nc3cccc(Br)n3)C[C@@]3(C)C[C@@H]23)c2c(C)cccc12	> 6.00
CC(=O)c1nn(CC(=O)N2[C@H](C(=O)Nc3nc(Br)ccc3C)C[C@@]3(C)C[C@@H]23)c2ccc(N)cc12	> 6.00
CC(=O)c1nn(CC(=O)N2[C@H](C(=O)Nc3cccc(Br)n3)C[C@@]3(C)C[C@@H]23)c2ccc(NC(=O)N3CCC(F)(F)C3)cc12	> 6.00
CC(=O)c1nn(CC(=O)N2C[C@H](F)C[C@H]2C(=O)Nc2cccc(Br)n2)c2ccc(C3OCC(N)CO3)cc12 (stereo partly specified)	> 6.00
CC(=O)c1nn(CC(=O)N2[C@H](C(=O)Nc3nc(Br)ccc3C)C[C@@]3(C)C[C@@H]23)c2ccc(N(C)C)cc12	> 6.00
